Test results published in patent publication US4772684A, “Peptides affecting blood pressure regulation” (Triton Biosciences, Inc., priority 1988, dated 1988).
Non-standard residues stand in square brackets, D forms with d. Residues, ends and D or L forms follow the SMILES beside them.

Tests used:
[1] = system: AII-stimulated contraction of isolated rabbit aorta strips; experiment: Peptide effect on AII-stimulated contraction of arterial muscle strips; assay type: cell-based; settings: AII 10^-9 M
Description: (§1) The peptides of this invention were tested in vitro, using an assay of isolated rabbit aorta strips mounted in a muscle bath.
(§2) Strips were mounted vertically on a glass holder in a tissue bath containing 50 ml of PSS. The upper end of each strip was connected to a force transducer. The bathing medium was maintained at 37° C. and aerated with a mixture of 95% O2 -5% CO2. The pH of the PSS was 7.2 and the composition, in mmoles/l, was as follows: NaCl 130, KCl 14.7, KH2 PO4 1.18, MgSO4 7H2 O 1.17, CaCl2 -2H2 O 1.6, […] 14.9, dextrose 5.5, and CaNa2 EDTA 0.03. In all experiments, the passive force on each strip was adjusted to 2,000 mg.
In another set of experiments, the ability of peptides to increase or decrease contraction caused by angiotensin II was measured.
The muscle strips were bathed in PSS containing AII, 10^-9 M. Strips were allowed to contract until a steady-state contraction was reached (^~8 minutes), then peptide was added in a step-wise. cumulative manner. The change in muscle strip contraction was measured after each addition of peptide, and more peptide was not added until contraction had stabilized from the previous peptide addition (10-15 minutes). Each peptide was tested in strips from 2 or 4 rabbits.
A positive value indicates increased contraction, while a negative value represents a decreased contractile response.

angiotensin II receptors = experiment: Inhibition of radiolabeled angiotensin II binding to isolated hepatic receptor; design: species or system rabbit; settings: for ID50 (concentration of peptide that inhibited binding of radiolabeled angiotensin II by 50%): 0.25 nM [125I]angiotensin II, partially purified solubilized rabbit liver receptor, 60 minutes at 20° C.
Description: Inhibition of angiotensin II binding to angiotensin II receptors by peptides of this invention was measured through the use of radioactive angiotensin II. Rabbit livers were homogenized and centrifuged in order to isolate particles sedimenting between 1,000 and 100,000×g. A portion of the particles which binds angiotensin II was solubilized with 1% digitonin, followed by ammonium sulfate fractionation between 49 and 65% saturation, followed by DEAE-cellulose chromatography at pH 7.5 using a linear gradient between 0.0 and 0.3 M KCl. The partially purified, solubilized receptor preparation bound 17 pmoles of angiotensin II per mg of protein when analyzed by Scatchard analysis, indicating a purity of approximately 0.1%.
The assay for binding of angiotensin II to the receptor was as follows: The complete system (150 μl) contained 30 mM Tris-HCl, pH 7.5, 2.5 mM K2 EDTA, 0.2 mM PCMS, 0.25 nM [^125 I]angiotensin II (ca. 100,000 cpm), 100 μg BSA, 0.25% (v/v) Brij 99 (a polyoxyethylene ether of a fatty alcohol) and 30 μg of partially purified receptor. The reaction was initiated by addition of the receptor and samples were incubated for 60 minutes at 20° C. The reaction was terminated with 1 ml of cold 0.5% charcoal/0.05% dextran in 100 mM Tris-HCl, pH 7.5. Tubes were vortexed and then allowed to stand 10 minutes at 4° C., after which they were centrifuged and their supernatants, containing protein-bound angiotensin II, were counted.
The complete system under these conditions regularly yields about 10,000 cpm of bound radioactivity. […] A sample including 20 nM cold angiotensin II was also run. Residual binding of radioactivity in this control was 35-45%. Certain peptides of this invention were dissolved in water, except for Peptide 5, which was dissolved in 3% DMSO, 0.04 M acetic acid, and 0.05 M HCl in water.

rat hypertension model = experiment: Blood pressure in anesthetized rats (rat hypertension model); assay type: in vivo
Description: Peptide 2 of this invention was tested in vivo, using a rat hypertension model. Adult male rats (n=4) were anesthetized with sodium pentobarbital (50 mg/kg) and the left jugular vein was cannulated for infusion of drugs. Bolus injections of angiotensin II were delivered via the same venous catheter. The right carotid artery was cannulated for measurement of blood pressure. Injection of angiotensin II (1 ng) caused an increase in mean arterial blood pressure (^~ 50 mm Hg).

[2] = system: isolated rabbit aorta strips; experiment: Contractile response of isolated arterial smooth muscle strips in muscle bath; assay type: cell-based; settings: cumulative addition
Description: as §1
as §2, with “The left anterior descending coronary artery was excised from the heart and cut helically into a strip under a dissecting microscope. Strips” for “Strips”
In one set of experiments, peptides were tested for ability to stimulate contractile response. Peptide was added to the bath in a step-wise, cumulative manner. Three peptides were tested: angiotensin II., Peptide 2 and Peptide 5. Muscle strips from between 2 and 6 rabbits were used to test each peptide.

dog femoral vein = experiment: Angiotensin II-caused relaxation of isolated dog venous strips; assay type: cell-based; settings: angiotensin II 3×10^-7 M
Description: Peptide 2 of this invention was tested in vitro, using an assay of isolated dog venous strips mounted in a muscle bath. Isolated segments of the dog femoral vein (n=2) were mounted in organ baths for measurement of isometric force generation. The conditions were as described in Example 3. The vascular segments were made to contract in response to prostaglandin F2a (8.5×10^-7 M). After the contraction reached a plateau, angiotensin II (3×10^-7 M) was added to the organ bath and the venous segments relaxed to approximately 50% of the response to prostaglandin F2a. This relaxation response to angiotensin II was inhibited 100% by saralasin ([…]) and by Peptide 2 (10^-5 M).

Q: What does the source list for `CC[C@@H](C)[C@@H](NC(=O)[C@@H](Cc1ccc(O)cc1)NC(=O)[C@H](NC(=O)CNC(=O)[C@H](N)CCCCN)C(C)C)C(=O)N[C@H](Cc1c[nH]cn1)C(=O)N[C@H](C)C(=O)N[C@H](CC(C)C)C(=O)O` [Peptide 11, NH2LYSGLYVALTYRILEHISALALEUCOOH] (H-[dK]G[dV][dY][dI][dH][dA][dL]-OH)?
A: % Change from AII Response ([1]; peptide 3 × 10^-5 M): -7%; % Change from AII Response ([1]; peptide 3 × 10^-6 M): -3%; % Change from AII Response ([1]; peptide 10^-4 M): -33%; % Change from AII Response ([1]; peptide 10^-5 M): -5%; % Change from AII Response ([1]; peptide 10^-6 M): 0%; ID50 (concentration of peptide that inhibited binding of radiolabeled angiotensin II by 50%) (angiotensin II receptors): > 10,000 nM

Q: “Angiotensin II (DRVYIHPF; Angiotensin-2; UniProt P01019 25-32, looked up) [an octapeptide formed from angiotensin I by angiotensin converting enzyme; causes blood vessel constriction, reference compound]” was tested. Which “Increase in mean arterial blood pressure” value (rat hypertension model; bolus injection 1 ng, jugular vein, anesthetized rats) did it give?
A: The value was ~ 50 mm Hg.

Q: And the “Average Baseline Response” value ([2]; 3 × 10^-8 M)?
A: The value was 2,613 mg.

Q: What about the “Average Baseline Response” value ([2]; 3 × 10^-9 M) of the same molecule?
A: The value was 2,332 mg.

Q: And the “Average Baseline Response” value ([2]; 3 × 10^-10 M)?
A: Its value is 991 mg.

Q: And the “Average Baseline Response” value ([2]; 3 × 10^-11 M)?
A: Its value is 0 mg.

Q: And the “Average Baseline Response” value ([2]; 10^-8 M)?
A: The value was 2,562 mg.

Q: What about the “Average Baseline Response” value ([2]; 10^-9 M) of the same molecule?
A: The value was 1,726 mg.

Q: And the “Average Baseline Response” value ([2]; 10^-10 M)?
A: Its value is 0 mg.

Q: What about the “Average Baseline Response” value ([2]; 10^-11 M) of the same molecule?
A: The value was 0 mg.

Q: What about the “Relaxation of venous segments, as % of the response to prostaglandin F2a” value (dog femoral vein; prostaglandin F2a 8.5×10^-7 M) of the same molecule?
A: The value was “approximately 50%”.

Q: What about the “ID50 (concentration of peptide that inhibited binding of radiolabeled angiotensin II by 50%)” value (angiotensin II receptors) of the same molecule?
A: The value was 12 to 15 nM.

Q: And the “Residual binding of radioactivity” value (angiotensin II receptors; 20 nM cold angiotensin II)?
A: The value was 35-45%.

Q: With `CC[C@H](C)[C@H](NC(=O)[C@H](Cc1ccc(O)cc1)NC(=O)[C@@H](NC(=O)CNC(=O)[C@H](CCCCN)NC(C)=O)C(C)C)C(=O)N[C@@H](Cc1c[nH]cn1)C(=O)N[C@@H](C)C(=O)N[C@@H](CC(C)C)C(N)=O` [Peptide 9] (Ac-KGVYIHAL-NH2) as the molecule, how does the “ID50 (concentration of peptide that inhibited binding of radiolabeled angiotensin II by 50%)” value (angiotensin II receptors) read?
A: The value was 2,400-3,100 nM.

Q: Which “ID50 (concentration of peptide that inhibited binding of radiolabeled angiotensin II by 50%)” value (angiotensin II receptors) does the source give for `CSCC[C@H](NC(=O)[C@H](CC(=O)O)NC(=O)[C@@H](NC(=O)CNC(=O)[C@@H](N)CCCCN)C(C)C)C(=O)N[C@@H](Cc1c[nH]cn1)C(=O)N[C@@H](C)C(=O)N[C@@H](CC(C)C)C(=O)O` [Peptide 3, NH2LYSGLYVALASPMETHISALALEUCOOH] (H-KGVDMHAL-OH) here?
A: The value was 5,000 nM.

Q: With `CC[C@H](C)[C@H](NC(=O)[C@H](Cc1ccc(O)cc1)NC(=O)[C@@H](NC(=O)CNC(=O)[C@@H](N)CCCCN)C(C)C)C(=O)N[C@@H](Cc1c[nH]cn1)C(=O)N[C@@H](C)C(=O)N[C@@H](CC(C)C)C(N)=O` [Peptide 7, NH2LYSGLYVALTYRILEHISALALEUCONH2] (H-KGVYIHAL-NH2) as the molecule, how does the “ID50 (concentration of peptide that inhibited binding of radiolabeled angiotensin II by 50%)” value (angiotensin II receptors) read?
A: The value was 40 to 160 nM.

Q: How did the “ID50 (concentration of peptide that inhibited binding of radiolabeled angiotensin II by 50%)” value (angiotensin II receptors) turn out when `CC(C)[C@H](NC(=O)[C@H](C)NC(=O)[C@H](Cc1ccc(O)cc1)NC(=O)[C@@H](NC(=O)[C@H](CC(=O)O)NC(=O)[C@@H](NC(=O)CNC(=O)[C@@H](N)CCCCN)C(C)C)C(C)C)C(=O)O` [Peptide 1, NH2 - LYS-GLY-VAL-ASP-VAL-TYR-ALA-VAL-COOH] (H-KGVDVYAV-OH) was run?
A: The value was 4,000 nM.

Q: `CC[C@H](C)[C@H](NC(=O)[C@H](Cc1ccc(O)cc1)NC(=O)[C@@H](NC(=O)CNC(=O)[C@@H](N)CCCCN)C(C)C)C(=O)N[C@@H](Cc1c[nH]cn1)C(=O)N[C@@H](C)C(=O)N[C@@H](CC(C)C)C(=O)O` [Peptide 2, NH2LYSGLYVALTYRILEHISALALEUCOOH] (H-KGVYIHAL-OH) was tested. Which “Effect on baseline blood pressure” value (rat hypertension model; infusion 0.1 to 0.5 mg/min) did it give?
A: Its value is “did not alter baseline blood pressure”.

Q: What about the “Effect on pressor responses to angiotensin II” value (rat hypertension model; infusion 0.1 to 0.5 mg/min, angiotensin II 1 ng) of the same molecule?
A: Its value is “did not influence pressor responses to angiotensin II”.

Q: And the “Average Baseline Response” value ([2]; 3 × 10^-7 M)?
A: The value was 0 mg.

Q: What about the “Average Baseline Response” value ([2]; 3 × 10^-8 M) of the same molecule?
A: Its value is 0 mg.

Q: And the “Average Baseline Response” value ([2]; 3 × 10^-9 M)?
A: Its value is 0 mg.

Q: What about the “Average Baseline Response” value ([2]; 3 × 10^-10 M) of the same molecule?
A: The value was 0 mg.

Q: And the “Average Baseline Response” value ([2]; 10^-6 M)?
A: The value was 0 mg.

Q: What about the “Average Baseline Response” value ([2]; 10^-7 M) of the same molecule?
A: The value was 0 mg.

Q: What about the “Average Baseline Response” value ([2]; 10^-8 M) of the same molecule?
A: The value was 0 mg.

Q: And the “Average Baseline Response” value ([2]; 10^-9 M)?
A: The value was 0 mg.

Q: What about the “% Change from AII Response” value ([1]; peptide 3 × 10^-5 M) of the same molecule?
A: Its value is -73%.

Q: What about the “% Change from AII Response” value ([1]; peptide 3 × 10^-6 M) of the same molecule?
A: The value was 0%.

Q: And the “% Change from AII Response” value ([1]; peptide 10^-4 M)?
A: Its value is -83%.

Q: And the “% Change from AII Response” value ([1]; peptide 10^-5 M)?
A: Its value is -18%.

Q: What about the “% Change from AII Response” value ([1]; peptide 10^-6 M) of the same molecule?
A: The value was 0%.

Q: What about the “Inhibition of relaxation response to angiotensin II” value (dog femoral vein; 10^-5 M) of the same molecule?
A: The value was 100%.

Q: What about the “ID50 (concentration of peptide that inhibited binding of radiolabeled angiotensin II by 50%)” value (angiotensin II receptors) of the same molecule?
A: The value was 8 to 14 nM.

Q: How did the “ID50 (concentration of peptide that inhibited binding of radiolabeled angiotensin II by 50%)” value (angiotensin II receptors) turn out when `CC(C)[C@H](NC(=O)[C@@H]1CCCN1C(=O)[C@H](Cc1c[nH]cn1)NC(=O)[C@@H](NC(=O)[C@H](CC(=O)O)NC(=O)[C@@H](NC(=O)CNC(=O)[C@@H](N)CCC(N)=O)C(C)C)C(C)C)C(=O)O` [Peptide 12, NH2GLNGLYVALASPVALHISPROVALCOOH] (H-QGVDVHPV-OH) was run?
A: Its value is 5,000 nM.

Q: `CSCC[C@H](NC(=O)[C@H](Cc1ccc(O)cc1)NC(=O)[C@@H](NC(=O)CNC(=O)[C@@H](N)CCCCN)C(C)C)C(=O)N[C@@H](Cc1c[nH]cn1)C(=O)N[C@@H](CO)C(=O)N[C@@H](CC(C)C)C(=O)O` [Peptide 13, NH2LYSGLYVALTYRMETHISSERLEUCOOH] (H-KGVYMHSL-OH) was tested. Which “ID50 (concentration of peptide that inhibited binding of radiolabeled angiotensin II by 50%)” value (angiotensin II receptors) did it give?
A: The value was 6 nM.
